Test results as given in the NIST ThermoML archive (doi:10.1016/j.jct.2013.08.023).
± gives the expanded uncertainty stated by the source.

Columns and labels:
[1] = 298.15 K; 101 kPa; Liquid; Vibrating tube method
[2] = refractive index (Na D-line) (dimensionless); conditions: 298.15 K; 101 kPa; Liquid; Standard Abbe refractometry

SMILES | mass density [1] [kg/m3] | refractive index [2]
CCCC[N+](C)(C)C.O=S(=O)([N-]S(=O)(=O)C(F)(F)F)C(F)(F)F [butyltrimethylammonium bis(trifluoromethylsulfonyl)imide] | 1393 ± 0.2 | 1.40806 ± 0.00031
CCO [ethanol] | 785.9 ± 0.2 | 1.35936 ± 0.00037
CCCCCCC [heptane] | 679.6 ± 0.3 | 1.38529 ± 0.00037
CCCCCC [hexane] | 655.2 ± 0.3 | 1.37241 ± 0.00037
CO [methanol] | 786.9 ± 0.2 | 1.32636 ± 0.00037
CCCC[N+](C)(CCCC)CCCC.O=S(=O)([N-]S(=O)(=O)C(F)(F)F)C(F)(F)F [tributylmethylammonium bis((trifluoromethyl)sulfonyl)imide] | 1261.3 ± 0.2 | 1.42614 ± 0.00032
